This passage reports IC50 results from patent publication US9718774B2, “Indole carboxamide derivatives as P2X7 receptor antagonist” (ACTELION PHARMACEUTICALS LTD, priority 2012, dated 2017).

The term IC50 denotes the point on the concentration scale where inhibition reaches its midpoint.

The target of this experiment is T1, human recombinant P2X7 receptor (Homo sapiens, UniProt Q99572).
T1 construct: expressed in transfected cells
T1 sequence (Q99572 1-595): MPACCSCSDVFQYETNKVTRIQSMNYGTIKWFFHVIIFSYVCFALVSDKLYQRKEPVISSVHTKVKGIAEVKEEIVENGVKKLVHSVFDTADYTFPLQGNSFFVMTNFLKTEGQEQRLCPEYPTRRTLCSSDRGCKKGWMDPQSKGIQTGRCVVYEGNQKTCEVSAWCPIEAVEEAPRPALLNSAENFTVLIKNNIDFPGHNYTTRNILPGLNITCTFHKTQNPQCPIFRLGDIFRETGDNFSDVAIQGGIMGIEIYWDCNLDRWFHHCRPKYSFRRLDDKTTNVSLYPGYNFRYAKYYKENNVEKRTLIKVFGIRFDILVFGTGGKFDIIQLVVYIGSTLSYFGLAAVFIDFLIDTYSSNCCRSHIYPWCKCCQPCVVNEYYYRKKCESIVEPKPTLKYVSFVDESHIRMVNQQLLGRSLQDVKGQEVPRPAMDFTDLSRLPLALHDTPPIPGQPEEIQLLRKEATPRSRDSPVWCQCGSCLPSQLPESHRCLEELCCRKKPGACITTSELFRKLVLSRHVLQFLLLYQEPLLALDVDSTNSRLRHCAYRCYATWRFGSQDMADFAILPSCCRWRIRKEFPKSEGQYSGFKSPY
As to the kind of experiment: YO-PRO assay: P2X7 receptor antagonistic activity in HEK cells stably expressing P2X7. In kind it is cell-based. The following applies: antagonistic activity with respect to the P2X7 receptor, read-out: IC50. Here is the method:
The P2X7 receptor antagonistic activity of the compounds of formula (I) is determined in accordance with the following experimental method.
Cell Line Generation and YO-PRO Assay
Cell line generation was performed in general according to established molecular cloning protocols. Specifically, RNA was extracted from human whole blood using the Qiagen RNeasy kit (Qiagen, CH) according to the manufacturer's instructions. Subsequently cDNA was made (Superscript II, Invitrogen AG, CH) and the human P2X7 gene (genbank ref. BC011913) was amplified with the following primers: […] and […]. The amplified sequence was subsequently ligated into a pcDNA3.1 (+) NotI, NheI digested plasmid. Human embryonic kidney (HEK) cells (ATCC CRL—1573, Manassas, Va., USA) were transfected with the pcDNA3.1 (+).hP2X7 plasmid using lipofectamine 2000 (Invitrogen AG, CH) according to the manufacturer's instructions. Following a 24 h exposure to DNA, cells were trypsinized and re-seeded at low density in the presence of 250 μg Geneticin. Geneticin resistant cells were then selected during two consecutive rounds of cloning by serial limiting dilution with visual inspection. Individual clones were screened for P2X7 expression by applying ATP and recording the resultant uptake of YO-PRO1. Specific cell clones were chosen based on RNA and protein expression. HEK cells stably expressing P2X7 were used to screen drugs using the YO-PRO1 assay. Cells were grown to confluency in adherent culture at 37° C. in a humidified 5% CO2 incubator (split 1/5 every 3-4 days with DMEM, 10% FCS, 1% Penicillin/Streptomycin, 250 μg/ml Geneticin). Adherent cells were detached by incubation with Trypsine (1 ml per 165 cm^2 dish) for 2 minutes, then washed off with 10 ml PBS (without Mg^2+ and Ca^2+), and resuspended in DMEM, 10% FCS, 1% Penicillin/Streptomycin, no Geneticin. 10′000 cells per well (48 hours before the assay) or 25′000 cells per well (Vi-cell XR (Beckman Coulter) (24 hours before the assay) in 50 μl full medium were seeded on 384-well black-wall, clear bottom plates, that were coated before with 10 μl per well Poly-L-Lysine, incubated for 30-60 minutes at 37° C. and washed once with PBS. Medium was removed from cells and 50 μl of assay buffer containing 0.5 μM YO-PRO-1 was added into the wells. Solutions of antagonist compounds were prepared by serial dilutions of a 10 mM DMSO solution of the antagonist into PBS using a BioMek (Beckman Coulter). Each concentration was performed in duplicate. For IC50 measurements 10 concentration points were measured (10 μM being the highest concentration followed by 9 serial dilution steps 1/3). The cells were incubated with the antagonists of the present invention together with ATP at a final concentration of 250 μM for 90 minutes. During this time period, four time points were taken. Each time point comprised the average of several measurements made within a few seconds. Fluorescence was measured in the FLIPR tetra (Molecular Devices) using the filters appropriate for YO-PRO-1 fluorescence (excitation 485/20, emission 530/25). The FLIPR tetra was equipped with Molecular Devices Screen Works system control software to define and run experimental protocols. […] For IC50 measurements the maximum intensity is plotted against the concentration of compound to determine IC50 values.
For the molecule `Cc1noc(C)c1C(CNC(=O)c1ccc2[nH]ccc2c1Cl)N1CCOCC1` (racemic) [Example 53, rac-4-Chloro-1H-indole-5-carboxylic acid [2-(3,5-dimethyl-isoxazol-4-yl)-2-morpholin-4-yl-ethyl]-amide], the concentration for half-maximal inhibition (IC50) worked out at 1990 nM. The value for `Cc1noc(C)c1C(CNC(=O)c1ccc2[nH]ccc2c1Cl)N1CCCCC1` (racemic) [Example 54, rac-4-Chloro-1H-indole-5-carboxylic acid [2-(3,5-dimethyl-isoxazol-4-yl)-2-piperidin-1-yl-ethyl]-amide] was 1850 nM; that for `Cc1ccc(C(CNC(=O)c2ccc3[nH]ccc3c2Cl)N2CCCCC2)cc1` (racemic) [Example 55, rac-4-Chloro-1H-indole-5-carboxylic acid (2-piperidin-1-yl-2-p-tolyl-ethyl)-amide] was 774 nM; that for `O=C(NCC(c1ccc(Cl)nc1)N1CCCCC1)c1ccc2[nH]ccc2c1Cl` (racemic) [Example 56, rac-4-Chloro-1H-indole-5-carboxylic acid [2-(6-chloro-pyridin-3-yl)-2-piperidin-1-yl-ethyl]-amide] was 8.8 nM. On to `O=C(NCC(c1ccc(Oc2ccccc2)cc1)N1CCCCC1)c1ccc2[nH]ccc2c1Cl` (racemic) [Example 57, rac-4-Chloro-1H-indole-5-carboxylic acid [2-(4-phenoxy-phenyl)-2-piperidin-1-yl-ethyl]-amide], for which the IC50 stood at 187 nM.

Consider `O=C(NCC(c1ccc(Oc2ccccc2)cc1)N1CCOCC1)c1ccc2[nH]ccc2c1Cl` (racemic) [Example 58, rac-4-Chloro-1H-indole-5-carboxylic acid [2-morpholin-4-yl-2-(4-phenoxy-phenyl)-ethyl]-amide], for which the IC50 was determined as 102 nM.

With `COc1ccc(C(CNC(=O)c2ccc3[nH]ccc3c2Cl)N2CCOCC2)cc1` (racemic) [Example 59, rac-4-Chloro-1H-indole-5-carboxylic acid [2-(4-methoxy-phenyl)-2-morpholin-4-yl-ethyl]-amide], the IC50 amounted to 55 nM. On to `Cc1cnc(C(CNC(=O)c2ccc3[nH]ccc3c2Cl)N2CCCCC2)cn1` (racemic) [Example 60, rac-4-Chloro-1H-indole-5-carboxylic acid [2-(5-methyl-pyrazin-2-yl)-2-piperidin-1-yl-ethyl]-amide], for which the half-inhibitory concentration (IC50) came to 232 nM.

`O=C(NCC(c1ccns1)N1CCCCC1)c1ccc2[nH]ccc2c1Cl` (racemic) [Example 61, rac-4-Chloro-1H-indole-5-carboxylic acid (2-isothiazol-5-yl-2-piperidin-1-yl-ethyl)-amide]: the IC50 was 15 nM. The value for `O=C(NCC(c1cncs1)N1CCCCC1)c1ccc2[nH]ccc2c1Cl` (racemic) [Example 62, rac-4-Chloro-1H-indole-5-carboxylic acid (2-piperidin-1-yl-2-thiazol-5-yl-ethyl)-amide] was 48 nM; that for `Cc1cnc(C(CNC(=O)c2ccc3[nH]ccc3c2Cl)N2CCOCC2)cn1` (racemic) [Example 63, rac-4-Chloro-1H-indole-5-carboxylic acid [2-(5-methyl-pyrazin-2-yl)-2-morpholin-4-yl-ethyl]-amide] was 257 nM. On to `O=C(NCC(c1cncs1)N1CCOCC1)c1ccc2[nH]ccc2c1Cl` (racemic) [Example 64, rac-4-Chloro-1H-indole-5-carboxylic acid (2-morpholin-4-yl-2-thiazol-5-yl-ethyl)-amide], for which the IC50 was determined as 53 nM. With `O=C(NCC(c1ccc(Cl)nc1)C1CCCCC1)c1ccc2[nH]ccc2c1Cl` (racemic) [Example 65, rac-4-Chloro-1H-indole-5-carboxylic acid [2-(6-chloro-pyridin-3-yl)-2-cyclohexyl-ethyl]-amide], the IC50 came to 76 nM. Consider `CC(C)CC(CNC(=O)c1ccc2[nH]ccc2c1Cl)c1ccc(Cl)nc1` (racemic) [Example 66, rac-4-Chloro-1H-indole-5-carboxylic acid [2-(6-chloro-pyridin-3-yl)-4-methyl-pentyl]-amide], for which the IC50 came to 32 nM. The value for `CCOC(CNC(=O)c1ccc2[nH]ccc2c1Cl)c1cnc(C)nc1` (racemic) [Example 67, rac-4-Chloro-1H-indole-5-carboxylic acid [2-ethoxy-2-(2-methyl-pyrimidin-5-yl)-ethyl]-amide] was 636 nM; that for `Cc1ncc(C(CNC(=O)c2ccc3[nH]ccc3c2Cl)OC2CCCCC2)cn1` (racemic) [Example 69, rac-4-Chloro-1H-indole-5-carboxylic acid [2-cyclohexyloxy-2-(2-methyl-pyrimidin-5-yl)-ethyl]-amide] was 61 nM; that for `Cc1ncc(C(CNC(=O)c2ccc3[nH]ccc3c2Cl)OC2CCOCC2)cn1` (racemic) [Example 70, rac-4-Chloro-1H-indole-5-carboxylic acid [2-(2-methyl-pyrimidin-5-yl)-2-(tetrahydro-pyran-4-yloxy)-ethyl]-amide] was 91 nM. Regarding `CCC(CC)OC(CNC(=O)c1ccc2[nH]ccc2c1Cl)c1cnc(C)nc1` (racemic) [Example 71, rac-4-Chloro-1H-indole-5-carboxylic acid [2-(1-ethyl-propoxy)-2-(2-methyl-pyrimidin-5-yl)-ethyl]-amide], the IC50 is 22 nM. Take `Cc1ncc(C(CNC(=O)c2ccc3[nH]c(C)cc3c2Cl)N2CCOCC2)cn1` (racemic) [Example 72, rac-4-Chloro-2-methyl-1H-indole-5-carboxylic acid [2-(2-methyl-pyrimidin-5-yl)-2-morpholin-4-yl-ethyl]-amide]: the IC50 stood at 463 nM. As to `O=C(NCC(c1cccnn1)N1CCCCC1)c1ccc2[nH]ccc2c1Cl` (racemic) [Example 73, rac-4-Chloro-1H-indole-5-carboxylic acid (2-piperidin-1-yl-2-pyridazin-3-yl-ethyl)-amide], the IC50 is 1010 nM. As to `O=C(NCC(c1ccnc(O)c1)N1CCCCC1)c1ccc2[nH]ccc2c1Cl` (racemic) [Example 74, rac-4-Chloro-1H-indole-5-carboxylic acid [2-(2-hydroxypyridin-4-yl)-2-piperidin-1-yl-ethyl]-amide], the IC50 was 193 nM. As to `Cc1ncc(C(CNC(=O)c2ccc3[nH]ccc3c2Cl)N2CCC(C(=O)OC(C)(C)C)CC2)cn1` (racemic) [Example 75, rac-1-[2-[(4-Chloro-1H-indole-5-carbonyl)-amino]-1-(2-methyl-pyrimidin-5-yl)-ethyl]-piperidine-4-carboxylic acid tert-butyl ester], the IC50 was 258 nM.

`Cc1ncc(C(CNC(=O)c2ccc3[nH]ccc3c2Cl)N2CCC(C)CC2)cn1` (racemic) [Example 76, rac-4-Chloro-1H-indole-5-carboxylic acid [2-(4-methyl-piperidin-1-yl)-2-(2-methyl-pyrimidin-5-yl)-ethyl]-amide]: the IC50 is 348 nM. In the case of `Cc1ncc(C(CNC(=O)c2ccc3[nH]ccc3c2Cl)N2CCC(F)CC2)cn1` (racemic) [Example 78, rac-4-Chloro-1H-indole-5-carboxylic acid [2-(4-fluoro-piperidin-1-yl)-2-(2-methyl-pyrimidin-5-yl)-ethyl]-amide], the IC50 was found to be 12 nM.
